Values belong to the compound of their own block, whether it stands above or below them.
Tests used:
[1] = design: method as in PMID 21375264; conditions: cited from earlier work
[2] = design: method as in PMID 21375264; conditions: acute and chronic toxicity tests in rats; cited from earlier work
[3] = tested on: TNF-α and IL-6 production; design: method as in PMID 21375264; conditions: following oral administration; cited from earlier work
[4] = Log D measurement (1-octanol/PBS); assay type: physicochemical; conditions: 1-octanol/PBS (pH = 7.4), room temperature
Protocol: The mixture was shaken for 10 min at room temperature, followed by centrifugation at 10,000 rpm for 10 min. The radioactivity in each phase was measured using a γ counter.

[5] = In vitro stability analysis in mouse plasma; assay type: in vitro ADME; conditions: 2 h incubation in mouse plasma at 37 °C, normal-phase TLC
[6] = Biodistribution study after intravenous administration in normal ddY mice; assay type: in vivo
Protocol: Mice (n = 20, 5 weeks old, 23–29 g) were randomly assigned to five groups (n = 4 each). […] Sample size was limited to four animals per group in adherence to ethical guidelines for the reduction of animal use. Target tissues, including BAT, blood, muscle, bone, brain, heart, lung, stomach, pancreas, spleen, kidneys, liver, and small and large intestines, were excised and weighed, and the radioactivity of each tissue was measured using a γ-counter. The accumulation of radioactivity was expressed as the percentage of the injected dose per gram of tissue (%ID/g) for all tissues except for the stomach, for which it was expressed as the percentage of the injected dose per organ (%ID).

[7] = PET/CT imaging of BAT in normal mouse; assay type: in vivo, ddY mice
Protocol: A small-animal PET/SPECT/CT scanner (E-Class VECTor^6CT^SD, MILabs, Utrecht, The Netherlands) was used, and it was equipped with a high-efficiency general purpose rat and mouse collimator. After the PET imaging, CT imaging was performed (exposure time: 40 ms, tube voltage: 55 kv, tube current: 0.33 mA). After the CT imaging, the mice were immediately euthanized under anesthesia, their BAT was removed and weighed, and its radioactivity was measured (n = 1). The raw data obtained from the PET scan were reconstructed using the SROSEM method and superimposed onto the CT images. […] The SUVs were then calculated using Amide software 1.0.6 (Slashdot Media, San Francisco, CA, USA).

activated p38α = tested on: activated p38α; design: method as in PMID 34410619, PMID 35760973; conditions: cited from earlier work
[8] = 5 min after i.v. administration
[9] = 15 min after i.v. administration
[10] = 30 min after i.v. administration
[11] = 60 min after i.v. administration
[12] = 120 min after i.v. administration

Structure (SMILES): Cn1c(=O)c(Oc2ccc(F)cc2F)cc2cnc(NC3CCOCC3)nc21 [R1487, 6-(2,4-difluorophenoxy)-8-methyl-2-(tetrahydro-2H-pyran-4-ylamino)pyrido [2,3-d]pyrimidin-7(8H)-one]
clearance route [1]: predominantly hepatic clearance | oral bioavailability ([1]; monkeys, oral administration): 51.6% | half-life in blood ([1]; monkeys): 22.5 h | acceptable tolerability, no severe adverse events [2]: up to 10 mg/kg | production of TNF-α and IL-6 [3]: suppress

logD [4]: 2.2 | radioactivity detected in intact form [5]: more than 96% | Radioactivity in BAT [6, 8]: 16.3 ± 2.7 %ID/g | Radioactivity in Blood [6, 8]: 2.8 ± 0.1 %ID/g | Radioactivity in Bone [6, 8]: 6.4 ± 0.7 %ID/g | Radioactivity in Brain [6, 8]: 2.9 ± 0.5 %ID/g | Radioactivity in Heart [6, 8]: 5.0 ± 0.8 %ID/g | Radioactivity in Kidney [6, 8]: 7.7 ± 1.9 %ID/g | Radioactivity in Large intestine [6, 8]: 2.2 ± 0.7 %ID/g | Radioactivity in Liver [6, 8]: 11.3 ± 1.9 %ID/g | Radioactivity in Lung [6, 8]: 4.0 ± 0.6 %ID/g | Radioactivity in Muscle [6, 8]: 2.7 ± 0.5 %ID/g | Radioactivity in Pancreas [6, 8]: 4.4 ± 0.9 %ID/g | Radioactivity in Small intestine [6, 8]: 5.8 ± 1.0 %ID/g | Radioactivity in Spleen [6, 8]: 4.0 ± 0.9 %ID/g | Radioactivity in Stomach [6, 8]: 1.1 ± 0.2 %ID | Radioactivity in BAT [6, 9]: 8.0 ± 2.6 %ID/g | Radioactivity in Blood [6, 9]: 1.0 ± 0.2 %ID/g | Radioactivity in Bone [6, 9]: 5.1 ± 0.9 %ID/g | Radioactivity in Brain [6, 9]: 1.3 ± 0.6 %ID/g | Radioactivity in Heart [6, 9]: 2.8 ± 0.5 %ID/g | Radioactivity in Kidney [6, 9]: 5.1 ± 1.3 %ID/g | Radioactivity in Large intestine [6, 9]: 2.3 ± 0.4 %ID/g | Radioactivity in Liver [6, 9]: 5.9 ± 1.3 %ID/g | Radioactivity in Lung [6, 9]: 3.2 ± 0.8 %ID/g | Radioactivity in Muscle [6, 9]: 2.4 ± 0.3 %ID/g | Radioactivity in Pancreas [6, 9]: 2.4 ± 0.6 %ID/g | Radioactivity in Small intestine [6, 9]: 8.6 ± 1.9 %ID/g | Radioactivity in Spleen [6, 9]: 4.5 ± 0.8 %ID/g | Radioactivity in Stomach [6, 9]: 1.3 ± 0.5 %ID | Radioactivity in BAT [6, 10]: 5.2 ± 1.1 %ID/g | Radioactivity in Blood [6, 10]: 0.7 ± 0.1 %ID/g | Radioactivity in Bone [6, 10]: 6.7 ± 1.0 %ID/g | Radioactivity in Brain [6, 10]: 1.0 ± 0.6 %ID/g | Radioactivity in Heart [6, 10]: 2.3 ± 0.7 %ID/g | Radioactivity in Kidney [6, 10]: 3.5 ± 0.6 %ID/g | Radioactivity in Large intestine [6, 10]: 4.3 ± 3.7 %ID/g | Radioactivity in Liver [6, 10]: 4.7 ± 0.9 %ID/g | Radioactivity in Lung [6, 10]: 2.3 ± 0.5 %ID/g | Radioactivity in Muscle [6, 10]: 2.1 ± 0.2 %ID/g | Radioactivity in Pancreas [6, 10]: 1.9 ± 0.1 %ID/g | Radioactivity in Small intestine [6, 10]: 16.9 ± 4.0 %ID/g | Radioactivity in Spleen [6, 10]: 3.3 ± 0.5 %ID/g | Radioactivity in Stomach [6, 10]: 1.8 ± 0.4 %ID | Radioactivity in BAT [6, 11]: 2.2 ± 0.6 %ID/g | Radioactivity in Blood [6, 11]: 0.4 ± 0.1 %ID/g | Radioactivity in Bone [6, 11]: 6.9 ± 2.9 %ID/g | Radioactivity in Brain [6, 11]: 0.4 ± 0.2 %ID/g | Radioactivity in Heart [6, 11]: 1.4 ± 0.1 %ID/g | Radioactivity in Kidney [6, 11]: 2.4 ± 0.7 %ID/g | Radioactivity in Large intestine [6, 11]: 4.3 ± 1.6 %ID/g | Radioactivity in Liver [6, 11]: 3.4 ± 0.3 %ID/g | Radioactivity in Lung [6, 11]: 1.3 ±0.2 %ID/g | Radioactivity in Muscle [6, 11]: 1.0 ± 0.1 %ID/g | Radioactivity in Pancreas [6, 11]: 1.0 ± 0.1 %ID/g | Radioactivity in Small intestine [6, 11]: 23.8 ± 3.7 %ID/g | Radioactivity in Spleen [6, 11]: 1.7 ± 0.4 %ID/g | Radioactivity in Stomach [6, 11]: 4.1 ± 2.2 %ID | Radioactivity in BAT [6, 12]: 1.0 ± 0.2 %ID/g | Radioactivity in Blood [6, 12]: 0.2 ± 0.0 %ID/g | Radioactivity in Bone [6, 12]: 8.7 ± 2.3 %ID/g | Radioactivity in Brain [6, 12]: 0.2 ± 0.1 %ID/g | Radioactivity in Heart [6, 12]: 0.7 ± 0.1 %ID/g | Radioactivity in Kidney [6, 12]: 0.7 ± 0.1 %ID/g | Radioactivity in Large intestine [6, 12]: 32.6 ± 8.7 %ID/g | Radioactivity in Liver [6, 12]: 1.8 ± 0.9 %ID/g | Radioactivity in Lung [6, 12]: 0.4 ± 0.1 %ID/g | Radioactivity in Muscle [6, 12]: 0.5 ± 0.0 %ID/g | Radioactivity in Pancreas [6, 12]: 1.0 ± 0.4 %ID/g | Radioactivity in Small intestine [6, 12]: 13.0 ± 3.4 %ID/g | Radioactivity in Spleen [6, 12]: 0.9 ± 0.1 %ID/g | Radioactivity in Stomach [6, 12]: 1.2 ± 0.5 %ID | time of peak radioactivity in BAT ([6]; post-injection): 5 min | mean standardized uptake value (SUV) in the BAT ([7]; PET 10–15 min post-intravenous administration, manual ROI): 4.7 | radioactivity in the excised BAT after PET/CT imaging ([7]; γ counter, immediately after PET/CT imaging, n = 1): 11.6 %ID/g
Structure (SMILES): Cn1c(=O)c(Oc2ccc([18F])cc2F)cc2cnc(NC3CCOCC3)nc21 [[^18F]R1487, 6-(4-[^18F]fluoro-2-fluorophenoxy)-8-methyl-2-(tetrahydro-2H-pyran-4-ylamino)-pyrido[2,3-d]pyrimidin-7(8H)-one]

Structure (SMILES): Cn1c(=O)c(Oc2ccc([77Br])cc2F)cc2cnc(NC3CCOCC3)nc21 [[^77Br]4-BR, 6-(4-[^77Br]bromo-2-fluorophenoxy)-8-methyl-2-(tetrahydro-2H-pyran-4-ylamino)-pyrido[2,3-d]pyrimidin-7(8H)-one]
inflamed site-to-blood ratio (activated p38α; at 2 h): 4.1 | time of peak radioactivity accumulation in inflamed tissues (activated p38α; post-injection): 15 min
